{"source": "patent US20160216351A1", "about": "“METHOD FOR DETECTING OXIDATION/REDUCTION REACTION IN VIVO” (KYUSHU UNIVERSITY, NATIONAL UNIVERSITY CORPORATION, priority 2013, published 2016)", "key": {"[1]": {"test_system": "mitochondria collected from a rat", "experiment": "ReMI metabolic imaging in the presence of mitochondria (phantom tubes)", "type": "in vitro ADME", "settings": "mitochondria fractions of various concentrations", "description": "The ReMI experiment was conducted by using a DNP-MRI system manufactured at Kyushu University. The DNP-MRI system was constituted by using an external magnet for an EPR device (JES-ES20, JEOL Ltd.) and two axis field gradient coils for CW-EPR imaging. A resonator was constituted of a surface coil for ESR irradiation, an NMR cross coil within a saddle, and a solenoid for transmission and signal reception. An ESR irradiation coil was disposed between two NMR coils. […] A surface coil (diameter: 20 mm) was used for ESR irradiation, and an NMR coil assembly was constituted of an NMR transmission saddle coil (90 mm i.d., 175 mm in length) and a solenoid reception coil (40 mm i.d., 60 mm in length) having a bandwidth of 1 kHz. The maximum transmission power was 100 W. The ReMI experiment was conducted by a spin echo method. The ReMI experiment was conducted under the following conditions: EPR irradiation power, 12 W; flip angle, 90 degrees; TEPR×repetition time (TR)×echo time (TE)=500×1000×40 ms; average number=1; slice thickness, 30 mm; and a 64-phase modulation step. For the image field (32×32 mm), 64×64 matrix was used.\nTo a phantom tube filled with mitochondria collected from a rat was added FADH or CoQ0H in an experiment. […] The metabolic rates (decreasing rates) of FADH and CoQ0H were calculated from changes in the first four image intensities after the reaction with mitochondria."}, "C57BL6 mice": {"test_system": "C57BL6 mice", "experiment": "Metabolic imaging in mice using sequential ReMI", "type": "in vivo", "from_the_text": "Female C57BL6 mice (5 weeks old) were purchased from Japan SLC, Inc. (Hamamatsu, Japan) and acclimated for one week before the experiment. Mice were 6 to 8 weeks old at the time of the experiment (body weight: 20-30 g), and five mice were kept in each cage in a room that was adjusted to a 24-hour cycle rhythm, wherein the temperature and moisture of the room were also adjusted. Food and water were given ad libitum. All the procedures and animal care were approved by the Animal Experiment Ethics Committee of Kyushu University and carried out in accordance with guidelines for animal experiments established by Kyushu University.\nMice were anesthetized with 2% isoflurane in the FADH experiment or with urethane (2 g/kg) in the CoQ0H experiment and immobilized with a skin adhesive tape, wherein the stomach was placed to the lower side. During the experiment, the temperature of mice was kept at 37+/−1° C. with a warm current of air. Subsequently, mice were placed in a resonator and ReMI measurement was started. ReMI images of the lower abdominal region were examined after administering an 8 mM CoQ0 alkaline solution (800 μL) to the rectum or administering an FAD/NADH solution intramuscularly.\nReMI images were obtained by using a DNP-MRI system manufactured at Kyushu University in an experiment using FADH and a Philips prototype system in an experiment using CoQ0. The ReMI experiment was conducted using the abovementioned parameters. Radical metabolic images (redox maps) were obtained by calculating changes in ReMI intensity in each pixel among the first four ReMI images (from a semi-logarithmic plot line of each pixel on sequential images)."}}}
{"substance": "FADH", "values": [{"measurement": "redox map (intensity declining speed)", "setting": "[1]; calculated from first four image intensities", "result": "no change"}, {"measurement": "change in ReMI image intensity over time after reaction with mitochondria", "setting": "[1]; images every two minutes, EPR irradiation 572.5 MHz", "result": "no reaction with mitochondria"}, {"measurement": "distribution in fusion images of MRI and ReMI", "setting": "C57BL6 mice; FADH intramuscular, CoQ0H rectal", "result": "site-specifically distributed in the legs"}, {"measurement": "pharmacokinetic map (decreasing rate)", "setting": "C57BL6 mice; calculated from first four ReMI images", "result": "constant"}, {"measurement": "metabolism in the muscle by ReMI scanning", "setting": "C57BL6 mice; intramuscular administration", "result": "metabolized slowly"}, {"measurement": "ReMI image intensity during the test period", "setting": "C57BL6 mice; intramuscular administration in both legs, imaging every two minutes, 14 minutes", "result": "stable"}]}
